For one assay, the target named is D(3) dopamine receptor (Homo sapiens, UniProt P35462). Nature of the assay: DRUGMATRIX: Dopamine D3 radioligand binding (ligand: [3H] Spiperone). It is filed as cell membranes, CHO, Membrane. The conditions noted are these: cho.
Assay [1] has as its target Prostaglandin G/H synthase 1 (Homo sapiens, UniProt P23219). Nature of the assay: biochemical. The class given is tissue-based, Platelet.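 Further: inhibition of COX-1 enzyme activity, with arachidonic acid supplied as substrate; in other assays of this panel Not Active means under 50% inhibition at 10 µM.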
Assay [2] deals with T1, Alpha-1D adrenergic receptor (Homo sapiens, UniProt P25100).
T1 sequence (P25100 whole entry): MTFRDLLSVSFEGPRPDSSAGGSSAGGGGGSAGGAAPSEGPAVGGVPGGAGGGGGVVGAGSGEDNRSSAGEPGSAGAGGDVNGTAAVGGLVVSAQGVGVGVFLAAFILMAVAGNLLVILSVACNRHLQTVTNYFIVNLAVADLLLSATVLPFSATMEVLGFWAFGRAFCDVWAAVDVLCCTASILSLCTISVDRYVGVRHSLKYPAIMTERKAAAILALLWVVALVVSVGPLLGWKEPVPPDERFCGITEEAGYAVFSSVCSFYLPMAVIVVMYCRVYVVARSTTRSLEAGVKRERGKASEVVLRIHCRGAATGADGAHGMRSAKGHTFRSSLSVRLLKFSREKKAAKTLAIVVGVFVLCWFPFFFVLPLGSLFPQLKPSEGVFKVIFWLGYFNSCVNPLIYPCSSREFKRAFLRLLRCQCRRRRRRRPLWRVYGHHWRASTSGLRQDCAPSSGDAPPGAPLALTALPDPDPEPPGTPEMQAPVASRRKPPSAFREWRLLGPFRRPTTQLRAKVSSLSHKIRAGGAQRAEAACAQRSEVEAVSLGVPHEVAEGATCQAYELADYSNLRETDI
It is filed as cell membranes, HEK293, Membrane. The conditions noted are these: hek293.

A short description of assay [3]: DRUGMATRIX: Phosphodiesterase PDE4 enzyme inhibition (substrate: [3H]cAMP + cAMP). The conditions noted are these: u-937; Not Active = under 50% inhibition at 10 µM.
Assay [4] can be described thus: DRUGMATRIX: Glutamate, NMDA, Phencyclidine radioligand binding (ligand: [3H] TCP). It is filed as cell membranes, Rattus norvegicus, Wistar, Cerebral cortex, Membrane. To be noted: Not Active = under 50% inhibition at 10 µM.
The target in a further assay is T2, Adenosine receptor A1 (Homo sapiens, UniProt P30542).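 Further: radioligand binding assay at the adenosine A1 receptor, with DPCPX serving as the labelled ligand; in other assays of this panel Not Active means under 50% inhibition at 10 µM.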
T2 sequence (P30542 whole entry): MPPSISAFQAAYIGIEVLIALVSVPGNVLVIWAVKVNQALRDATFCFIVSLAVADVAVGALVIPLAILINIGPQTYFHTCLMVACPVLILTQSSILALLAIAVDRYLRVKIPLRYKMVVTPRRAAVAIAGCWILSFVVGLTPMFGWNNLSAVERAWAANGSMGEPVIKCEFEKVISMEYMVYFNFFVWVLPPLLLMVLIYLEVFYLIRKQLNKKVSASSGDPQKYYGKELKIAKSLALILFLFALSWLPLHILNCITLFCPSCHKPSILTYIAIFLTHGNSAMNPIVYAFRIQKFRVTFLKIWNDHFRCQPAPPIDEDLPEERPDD
The class given is cell membranes, CHO, Membrane. To be noted: cho.

For assay [5], the target named is Platelet-activating factor receptor (Homo sapiens, UniProt P25105). Nature of the assay: biochemical. It is filed as tissue-based. To be noted: platelet. Further: in other assays of this panel Not Active means under 50% inhibition at 10 µM.
Chain of Platelet-activating factor receptor (P25105 whole entry): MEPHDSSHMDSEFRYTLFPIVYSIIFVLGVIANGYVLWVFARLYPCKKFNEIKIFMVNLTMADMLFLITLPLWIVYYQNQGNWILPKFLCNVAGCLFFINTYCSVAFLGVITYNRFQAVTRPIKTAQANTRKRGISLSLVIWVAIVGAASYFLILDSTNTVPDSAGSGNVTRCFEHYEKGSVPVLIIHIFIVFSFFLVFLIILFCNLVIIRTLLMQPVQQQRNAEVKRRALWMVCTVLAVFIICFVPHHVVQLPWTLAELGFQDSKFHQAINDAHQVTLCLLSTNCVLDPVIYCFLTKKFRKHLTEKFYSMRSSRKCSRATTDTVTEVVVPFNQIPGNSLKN
The target in the next assay is Melanocortin receptor 3 (Homo sapiens, UniProt P41968). It is filed as cell membranes, Membrane. To be noted: hek293. Further: in other assays of this panel Not Active means under 50% inhibition at 10 µM.
Chain of Melanocortin receptor 3 (P41968 whole entry): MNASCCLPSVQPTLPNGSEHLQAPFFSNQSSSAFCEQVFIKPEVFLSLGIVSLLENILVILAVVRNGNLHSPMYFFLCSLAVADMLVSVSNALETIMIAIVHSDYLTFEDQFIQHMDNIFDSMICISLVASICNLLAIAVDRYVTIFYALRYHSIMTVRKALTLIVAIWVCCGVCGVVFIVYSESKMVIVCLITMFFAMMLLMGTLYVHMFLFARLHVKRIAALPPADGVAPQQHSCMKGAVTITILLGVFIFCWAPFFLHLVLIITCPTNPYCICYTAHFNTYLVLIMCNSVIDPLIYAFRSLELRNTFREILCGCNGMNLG
The nature of assay [6]: DRUGMATRIX: Glutamate, NMDA, Agonism radioligand binding (ligand: [3H] CGP-39653). To be noted: Not Active = under 50% inhibition at 10 µM. It is filed as cell membranes, Rattus norvegicus, Wistar, Cerebral cortex, Membrane.
The next assay deals with T3, Interstitial collagenase (Homo sapiens, UniProt P03956).
T3 sequence (P03956 whole entry): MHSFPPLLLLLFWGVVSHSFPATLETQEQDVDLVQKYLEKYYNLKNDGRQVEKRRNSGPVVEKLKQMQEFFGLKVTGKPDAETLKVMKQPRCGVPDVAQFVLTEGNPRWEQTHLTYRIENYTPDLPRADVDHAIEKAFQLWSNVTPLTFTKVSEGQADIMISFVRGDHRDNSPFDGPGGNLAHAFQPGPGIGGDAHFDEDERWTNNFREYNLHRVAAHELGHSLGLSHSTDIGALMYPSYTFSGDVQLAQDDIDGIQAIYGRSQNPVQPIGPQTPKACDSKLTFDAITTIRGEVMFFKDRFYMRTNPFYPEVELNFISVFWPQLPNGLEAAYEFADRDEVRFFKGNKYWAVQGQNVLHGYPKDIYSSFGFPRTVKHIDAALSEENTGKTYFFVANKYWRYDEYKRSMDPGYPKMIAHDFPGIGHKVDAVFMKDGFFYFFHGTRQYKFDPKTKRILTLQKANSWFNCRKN
It is filed as tissue-based, Rheumatoid synovial fibroblasts.

The nature of assay [7]: DRUGMATRIX: Calcium Channel Type L, Phenylalkylamine radioligand binding (ligand: [3H] (-)-Desmethoxyverapamil (D-888)). The class given is cell membranes, Rattus norvegicus, Wistar, Brain, Membrane. The conditions noted are these: Not Active = under 50% inhibition at 10 µM.
The target of assay [8] is Mitogen-activated protein kinase 1 (Homo sapiens, UniProt P28482). Briefly: DRUGMATRIX: Protein Serine/Threonine Kinase, ERK2 enzyme inhibition (substrate: Myelin Basic Protein). Set-up: species or system Escherichia coli. The conditions noted are these: Not Active = under 50% inhibition at 10 µM.
Chain of Mitogen-activated protein kinase 1 (P28482 whole entry): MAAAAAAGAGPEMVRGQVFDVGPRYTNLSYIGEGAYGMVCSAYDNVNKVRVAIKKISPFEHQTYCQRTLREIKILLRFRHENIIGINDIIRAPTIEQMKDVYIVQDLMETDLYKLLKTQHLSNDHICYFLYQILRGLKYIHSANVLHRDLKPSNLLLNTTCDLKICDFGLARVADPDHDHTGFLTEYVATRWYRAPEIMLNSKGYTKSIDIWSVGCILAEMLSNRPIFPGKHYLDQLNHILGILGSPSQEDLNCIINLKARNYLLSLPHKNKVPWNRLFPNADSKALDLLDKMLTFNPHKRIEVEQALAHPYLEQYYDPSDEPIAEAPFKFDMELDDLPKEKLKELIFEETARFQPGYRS
Assay [9] addresses T4, 3-hydroxy-3-methylglutaryl-coenzyme A reductase (Homo sapiens, UniProt P04035).
T4 sequence (P04035 whole entry): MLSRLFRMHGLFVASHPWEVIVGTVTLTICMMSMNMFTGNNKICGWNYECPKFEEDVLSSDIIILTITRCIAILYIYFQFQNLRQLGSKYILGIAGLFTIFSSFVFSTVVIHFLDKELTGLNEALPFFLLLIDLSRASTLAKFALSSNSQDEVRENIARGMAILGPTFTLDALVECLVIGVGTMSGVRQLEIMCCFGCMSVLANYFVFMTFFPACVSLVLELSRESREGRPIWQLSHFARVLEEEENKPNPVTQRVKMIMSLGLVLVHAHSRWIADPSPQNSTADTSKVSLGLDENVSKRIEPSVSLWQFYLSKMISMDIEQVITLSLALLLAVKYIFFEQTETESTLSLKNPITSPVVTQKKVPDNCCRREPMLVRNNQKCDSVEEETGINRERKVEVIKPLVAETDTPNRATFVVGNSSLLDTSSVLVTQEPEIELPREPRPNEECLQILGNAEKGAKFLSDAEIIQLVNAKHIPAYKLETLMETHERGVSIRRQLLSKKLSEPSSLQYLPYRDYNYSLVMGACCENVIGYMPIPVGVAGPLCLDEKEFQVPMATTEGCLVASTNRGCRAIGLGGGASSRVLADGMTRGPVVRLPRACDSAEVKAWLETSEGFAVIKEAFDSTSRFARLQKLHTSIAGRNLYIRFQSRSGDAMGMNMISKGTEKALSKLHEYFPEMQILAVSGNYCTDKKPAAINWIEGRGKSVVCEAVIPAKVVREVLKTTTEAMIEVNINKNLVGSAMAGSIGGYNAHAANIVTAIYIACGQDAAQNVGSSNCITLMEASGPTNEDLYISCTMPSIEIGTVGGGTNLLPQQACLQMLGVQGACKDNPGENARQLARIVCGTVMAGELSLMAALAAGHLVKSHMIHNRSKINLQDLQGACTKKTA
Further details: species or system Escherichia coli.

Chain of D(3) dopamine receptor (P35462 whole entry): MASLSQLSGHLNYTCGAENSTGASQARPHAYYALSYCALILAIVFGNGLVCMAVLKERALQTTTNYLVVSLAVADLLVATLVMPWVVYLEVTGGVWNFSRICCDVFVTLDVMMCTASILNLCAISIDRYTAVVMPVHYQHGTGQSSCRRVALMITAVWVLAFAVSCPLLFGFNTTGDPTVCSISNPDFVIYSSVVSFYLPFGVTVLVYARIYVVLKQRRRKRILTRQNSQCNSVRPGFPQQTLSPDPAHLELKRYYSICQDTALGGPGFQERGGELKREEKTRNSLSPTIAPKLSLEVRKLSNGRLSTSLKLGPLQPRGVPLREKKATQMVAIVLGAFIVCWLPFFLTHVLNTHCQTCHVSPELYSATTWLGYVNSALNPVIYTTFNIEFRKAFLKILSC
Chain of Prostaglandin G/H synthase 1 (P23219 whole entry): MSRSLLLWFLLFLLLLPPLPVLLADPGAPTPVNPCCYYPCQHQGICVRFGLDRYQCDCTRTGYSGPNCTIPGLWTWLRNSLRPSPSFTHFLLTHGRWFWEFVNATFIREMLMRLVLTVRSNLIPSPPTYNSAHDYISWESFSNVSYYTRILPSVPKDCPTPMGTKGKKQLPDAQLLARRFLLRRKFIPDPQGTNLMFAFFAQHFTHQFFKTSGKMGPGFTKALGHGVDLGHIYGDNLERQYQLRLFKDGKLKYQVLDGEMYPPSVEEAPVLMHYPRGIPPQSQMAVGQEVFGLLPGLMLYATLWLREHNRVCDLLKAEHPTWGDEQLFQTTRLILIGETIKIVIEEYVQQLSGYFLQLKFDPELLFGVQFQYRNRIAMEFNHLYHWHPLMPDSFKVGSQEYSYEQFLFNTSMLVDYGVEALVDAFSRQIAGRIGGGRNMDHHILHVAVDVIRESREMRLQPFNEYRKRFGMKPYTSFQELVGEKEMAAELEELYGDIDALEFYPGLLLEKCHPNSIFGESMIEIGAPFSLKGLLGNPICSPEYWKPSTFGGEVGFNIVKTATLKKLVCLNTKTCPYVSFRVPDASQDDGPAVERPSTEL

In general, IC50 refers to the concentration at which inhibition is half-maximal. In the case of `Cc1c(-c2ccccc2)oc2c(C(=O)OCCN3CCCCC3)cccc2c1=O` [FLAVOXATE], the IC50 entry (at D(3) dopamine receptor; in [1] (platelet); in assay [2]; in assay [3]; in assay [4]; against Adenosine receptor A1) was “Not Active” in each case. In addition, the IC50 entry (in assay [5]; on Melanocortin receptor 3; in assay [6]; on Interstitial collagenase; in [7]; in [8]) was “Not Active” in each case. Further, the IC50 entry in assay [9] is given as “Not Active”. Also, the Ki result in assay [3], in assay [4], in [6] and in assay [7] was “Not Active” throughout.
In the case of `O=c1[nH]cc(F)c(=O)[nH]1` [FLUOROURACIL], the IC50 result (at D(3) dopamine receptor; in [1] (platelet); in assay [2]; in assay [3]; in assay [4]; against Adenosine receptor A1) was “Not Active” throughout. In addition, the IC50 entry (in assay [5]; against Melanocortin receptor 3; in [6]; against Interstitial collagenase; in assay [7]; in assay [8]) was “Not Active” in each case. Further, the IC50 result in assay [9] is reported as “Not Active”. Also, the Ki entry in assay [3], in [4], in assay [6] and in assay [7] was “Not Active” each time.
As for `COc1ccc2cc(CC(=O)O)ccc2c1`, the IC50 entry on D(3) dopamine receptor is “Not Active”; in assay [1] (read-out: IC50), 4.11 µM; in assay [2], “Not Active”; in assay [3], “Not Active”; in [4], “Not Active”; against Adenosine receptor A1 it was “Not Active”. The IC50 result (in [5]; against Melanocortin receptor 3; in assay [6]; against Interstitial collagenase; in [7]; in [8]) was “Not Active” throughout. For the same compound, the IC50 result in [9] was “Not Active”. Besides, the Ki entry in [3], in assay [4], in assay [6] and in assay [7] was “Not Active” in each case.
Regarding `CC[C@@]1(O)C(=O)OCc2c1cc1n(c2=O)Cc2cc3ccccc3nc2-1` [CAMPTOTHECIN], the IC50 result (on D(3) dopamine receptor; in assay [1] (platelet); in assay [2]; in [3]; in assay [4]; at Adenosine receptor A1) was “Not Active” each time. For the same compound, the IC50 entry (in [5]; on Melanocortin receptor 3; in assay [6]; on Interstitial collagenase; in assay [7]; in assay [8]) was “Not Active” each time. The IC50 result in assay [9] is reported as “Not Active”. The Ki result in assay [3], in assay [4], in assay [6] and in assay [7] was “Not Active” throughout.
As for `NCC1(CC(=O)O)CCCCC1` [GABAPENTIN], the IC50 entry (at D(3) dopamine receptor; in assay [1] (platelet); in assay [2]; in assay [3]; in assay [4]; against Adenosine receptor A1) was “Not Active” each time. In addition, the IC50 result (in [5]; on Melanocortin receptor 3; in [6]; at Interstitial collagenase; in assay [7]; in [8]) was “Not Active” in each case. The IC50 entry in assay [9] is “Not Active”. For the same compound, the Ki result in assay [3], in assay [4], in assay [6] and in [7] was “Not Active” throughout.
With `C=C1[C@@H]2CCC3[C@@](CC[C@@H]4[C@H](C(=O)O)C[C@@H](O[C@@H]5O[C@H](CO)[C@@H](OS(=O)(=O)[O-])[C@H](OS(=O)(=O)[O-])[C@H]5OC(=O)CC(C)C)C[C@@]34C)(C2)[C@@H]1O.[K+].[K+]` (some centres not stated) [ATRACTYLOSIDE], the IC50 entry (at D(3) dopamine receptor; in [1] (platelet); in assay [2]; in assay [3]; in assay [4]; against Adenosine receptor A1) was “Not Active” throughout. In addition, the IC50 entry (in assay [5]; on Melanocortin receptor 3; in assay [6]; at Interstitial collagenase; in [7]; in assay [8]) was “Not Active” each time. In assay [9], the IC50 result is listed as “Not Active”. For the same compound, the Ki entry in assay [3], in [4], in [6] and in assay [7] was “Not Active” each time.

(Values after ChEMBL document CHEMBL1909046, “DrugMatrix in vitro pharmacology data”.)
